Measurements from US10456407B2, “Combination therapy for treating cancer” (Epizyme, Inc., priority 2015, dated 2019).

Tested on: WSU-DLCL2 cells
Test: RT2 Glucocorticoid signaling PCR array, WSU-DLCL2 (WSU) cell line (Table 4c)
Format: cell-based

With `CCN(c1cc(-c2ccc(CN3CCOCC3)cc2)cc(C(=O)NCc2c(C)cc(C)[nH]c2=O)c1C)C1CCOCC1` [Compound 44] as the compound, how does the “Ct Values, ACTB” value (gene ACTB) read?
The value was 15.450.

What about the “ΔCT (B2M), ACTB” value (gene ACTB) of the same compound?
Its value is −4.235.

What about the “Ct Values, ADARB1” value (gene ADARB1) of the same compound?
The value was 25.386.

What about the “ΔCT (B2M), ADARB1” value (gene ADARB1) of the same compound?
Its value is 5.701.

And the “ΔΔCT, ADARB1” value (gene ADARB1, compared to DMSO)?
Its value is −1.165.

What about the “Ct Values, AFF1” value (gene AFF1) of the same compound?
The value was 27.925.

What about the “ΔCT (B2M), AFF1” value (gene AFF1) of the same compound?
The value was 8.240.

And the “ΔΔCT, AFF1” value (gene AFF1, compared to DMSO)?
The value was −0.413.

And the “Ct Values, AK2” value (gene AK2)?
Its value is 21.365.

What about the “ΔCT (B2M), AK2” value (gene AK2) of the same compound?
The value was 1.680.

What about the “ΔΔCT, AK2” value (gene AK2, compared to DMSO) of the same compound?
The value was 0.486.

What about the “Ct Values, AMPD3” value (gene AMPD3) of the same compound?
The value was 27.162.

What about the “ΔCT (B2M), AMPD3” value (gene AMPD3) of the same compound?
The value was 7.477.

And the “ΔΔCT, AMPD3” value (gene AMPD3, compared to DMSO)?
Its value is −1.540.

And the “Ct Values, ANGPTL4” value (gene ANGPTL4)?
Its value is 30.487.

And the “ΔCT (B2M), ANGPTL4” value (gene ANGPTL4)?
Its value is 10.802.

And the “ΔΔCT, ANGPTL4” value (gene ANGPTL4, compared to DMSO)?
The value was −1.192.

And the “Ct Values, ANXA4” value (gene ANXA4)?
The value was 24.659.

What about the “ΔCT (B2M), ANXA4” value (gene ANXA4) of the same compound?
The value was 4.974.

And the “ΔΔCT, ANXA4” value (gene ANXA4, compared to DMSO)?
The value was −3.312.

What about the “Ct Values, AQP1” value (gene AQP1) of the same compound?
Its value is 33.645.

What about the “ΔCT (B2M), AQP1” value (gene AQP1) of the same compound?
Its value is 13.960.

What about the “Ct Values, ARID68” value (gene ARID68) of the same compound?
Its value is 26.126.

What about the “ΔCT (B2M), ARID68” value (gene ARID68) of the same compound?
The value was 6.441.

What about the “ΔΔCT, ARID68” value (gene ARID68, compared to DMSO) of the same compound?
Its value is −0.353.

And the “Ct Values, ASPH” value (gene ASPH)?
The value was 22.415.

What about the “ΔΔCT, ASPH” value (gene ASPH, compared to DMSO) of the same compound?
Its value is −0.105.

What about the “Ct Values, ATF4” value (gene ATF4) of the same compound?
The value was 20.470.

And the “ΔCT (B2M), ATF4” value (gene ATF4)?
Its value is 0.785.

And the “ΔΔCT, ATF4” value (gene ATF4, compared to DMSO)?
The value was 0.361.

What about the “Ct Values, B2M” value (gene B2M (normaliser)) of the same compound?
The value was 19.685.

What about the “ΔCT (B2M), B2M” value (gene B2M (normaliser)) of the same compound?
The value was 0.000.

What about the “Ct Values, BCL6” value (gene BCL6) of the same compound?
Its value is 20.795.

And the “ΔCT (B2M), BCL6” value (gene BCL6)?
Its value is 1.110.

What about the “ΔΔCT, BCL6” value (gene BCL6, compared to DMSO) of the same compound?
Its value is −0.394.

And the “Ct Values, CEBPA” value (gene CEBPA)?
Its value is 27.014.

And the “ΔCT (B2M), CEBPA” value (gene CEBPA)?
The value was 7.329.

What about the “ΔΔCT, CEBPA” value (gene CEBPA, compared to DMSO) of the same compound?
The value was −1.659.

And the “Ct Values, CEBPB” value (gene CEBPB)?
Its value is 26.770.

And the “ΔCT (B2M), CEBPB” value (gene CEBPB)?
The value was 7.085.

What about the “ΔΔCT, CEBPB” value (gene CEBPB, compared to DMSO) of the same compound?
The value was 1.269.

What about the “Ct Values, CREB1” value (gene CREB1) of the same compound?
Its value is 23.413.

What about the “ΔCT (B2M), CREB1” value (gene CREB1) of the same compound?
The value was 3.728.

What about the “ΔΔCT, CREB1” value (gene CREB1, compared to DMSO) of the same compound?
Its value is 0.008.

What about the “Ct Values, CREB3” value (gene CREB3) of the same compound?
Its value is 25.459.

What about the “ΔCT (B2M), CREB3” value (gene CREB3) of the same compound?
Its value is 5.774.

And the “ΔΔCT, CREB3” value (gene CREB3, compared to DMSO)?
The value was −0.085.

And the “Ct Values, CREB3L4” value (gene CREB3L4)?
The value was 24.392.

What about the “ΔCT (B2M), CREB3L4” value (gene CREB3L4) of the same compound?
The value was 4.707.

And the “ΔΔCT, CREB3L4” value (gene CREB3L4, compared to DMSO)?
The value was −0.915.

What about the “Ct Values, CYB561” value (gene CYB561) of the same compound?
The value was 31.478.

What about the “ΔCT (B2M), CYB561” value (gene CYB561) of the same compound?
The value was 11.793.

And the “ΔΔCT, CYB561” value (gene CYB561, compared to DMSO)?
Its value is −5.631.

What about the “Ct Values, DDIT4” value (gene DDIT4) of the same compound?
The value was 24.404.

What about the “ΔCT (B2M), DDIT4” value (gene DDIT4) of the same compound?
The value was 4.719.

And the “ΔΔCT, DDIT4” value (gene DDIT4, compared to DMSO)?
The value was −0.060.

What about the “Ct Values, DUSP1” value (gene DUSP1) of the same compound?
Its value is 27.284.

What about the “ΔCT (B2M), DUSP1” value (gene DUSP1) of the same compound?
Its value is 7.599.

What about the “ΔΔCT, DUSP1” value (gene DUSP1, compared to DMSO) of the same compound?
The value was 1.370.

What about the “Ct Values, EDN1” value (gene EDN1) of the same compound?
Its value is 26.349.

What about the “ΔCT (B2M), EDN1” value (gene EDN1) of the same compound?
The value was 6.664.

And the “Ct Values, EHD3” value (gene EHD3)?
The value was 24.270.

And the “ΔCT (B2M), EHD3” value (gene EHD3)?
Its value is 4.585.

What about the “ΔΔCT, EHD3” value (gene EHD3, compared to DMSO) of the same compound?
The value was −5.639.

What about the “Ct Values, ERRFI1” value (gene ERRFI1) of the same compound?
The value was 32.771.

What about the “ΔCT (B2M), ERRFI1” value (gene ERRFI1) of the same compound?
Its value is 13.086.

And the “Ct Values, FK8PS” value (gene FK8PS)?
The value was 23.267.

What about the “ΔCT (B2M), FK8PS” value (gene FK8PS) of the same compound?
Its value is 3.582.

What about the “ΔΔCT, FK8PS” value (gene FK8PS, compared to DMSO) of the same compound?
The value was 0.159.

And the “Ct Values, FOSL2” value (gene FOSL2)?
Its value is 34.140.

What about the “ΔCT (B2M), FOSL2” value (gene FOSL2) of the same compound?
Its value is 14.455.

And the “ΔΔCT, FOSL2” value (gene FOSL2, compared to DMSO)?
Its value is 2.796.

And the “Ct Values, GAPDH” value (gene GAPDH)?
The value was 17.275.

And the “ΔCT (B2M), GAPDH” value (gene GAPDH)?
The value was −2.410.

And the “Ct Values, GDPD1” value (gene GDPD1)?
Its value is 27.494.

And the “ΔCT (B2M), GDPD1” value (gene GDPD1)?
The value was 7.809.

And the “ΔΔCT, GDPD1” value (gene GDPD1, compared to DMSO)?
Its value is −1.112.

And the “Ct Values, GHRHR” value (gene GHRHR)?
The value was 39.957.

What about the “ΔCT (B2M), GHRHR” value (gene GHRHR) of the same compound?
Its value is 20.272.

What about the “ΔΔCT, GHRHR” value (gene GHRHR, compared to DMSO) of the same compound?
Its value is 5.086.

What about the “Ct Values, GLUL” value (gene GLUL) of the same compound?
Its value is 28.395.

And the “ΔCT (B2M), GLUL” value (gene GLUL)?
The value was 8.710.

What about the “Ct Values, GOT1” value (gene GOT1) of the same compound?
Its value is 23.827.

What about the “ΔCT (B2M), GOT1” value (gene GOT1) of the same compound?
The value was 4.142.

What about the “ΔΔCT, GOT1” value (gene GOT1, compared to DMSO) of the same compound?
Its value is 0.708.

And the “Ct Values, H6PD” value (gene H6PD)?
Its value is 25.976.

And the “ΔCT (B2M), H6PD” value (gene H6PD)?
The value was 6.291.

And the “ΔΔCT, H6PD” value (gene H6PD, compared to DMSO)?
The value was −0.619.

And the “Ct Values, HNRPLL” value (gene HNRPLL)?
Its value is 24.170.

And the “ΔCT (B2M), HNRPLL” value (gene HNRPLL)?
The value was 4.485.

What about the “ΔΔCT, HNRPLL” value (gene HNRPLL, compared to DMSO) of the same compound?
The value was −0.037.

What about the “Ct Values, HPRT1” value (gene HPRT1) of the same compound?
Its value is 22.793.

And the “ΔCT (B2M), HPRT1” value (gene HPRT1)?
Its value is 3.108.

What about the “Ct Values, IL1RN” value (gene IL1RN) of the same compound?
Its value is 28.388.

What about the “ΔCT (B2M), IL1RN” value (gene IL1RN) of the same compound?
The value was 8.703.

What about the “Ct Values, IL6R” value (gene IL6R) of the same compound?
The value was 33.814.

What about the “ΔCT (B2M), IL6R” value (gene IL6R) of the same compound?
Its value is 14.129.

What about the “Ct Values, IL10” value (gene IL10) of the same compound?
Its value is 34.229.

And the “ΔCT (B2M), IL10” value (gene IL10)?
Its value is 14.544.

What about the “Ct Values, KLF9” value (gene KLF9) of the same compound?
The value was 28.881.

What about the “ΔCT (B2M), KLF9” value (gene KLF9) of the same compound?
The value was 9.196.

What about the “ΔΔCT, KLF9” value (gene KLF9, compared to DMSO) of the same compound?
Its value is −2.195.

And the “Ct Values, KLF13” value (gene KLF13)?
Its value is 23.800.

And the “ΔCT (B2M), KLF13” value (gene KLF13)?
Its value is 4.115.

What about the “ΔΔCT, KLF13” value (gene KLF13, compared to DMSO) of the same compound?
Its value is −0.974.

And the “Ct Values, LOX” value (gene LOX)?
Its value is 34.399.

What about the “ΔCT (B2M), LOX” value (gene LOX) of the same compound?
The value was 14.714.

What about the “ΔΔCT, LOX” value (gene LOX, compared to DMSO) of the same compound?
Its value is −0.102.
